{
  "source": "patent US11512080B2",
  "about": "“CRBN ligands and uses thereof” (Kymera Therapeutics, Inc., priority 2018, dated 2022)",
  "data": [
    {"target": "His-tagged CRBN-DDB1 complex (Homo sapiens (Human), UniProt Q96SW2)", "sequence (Q96SW2 whole entry)": "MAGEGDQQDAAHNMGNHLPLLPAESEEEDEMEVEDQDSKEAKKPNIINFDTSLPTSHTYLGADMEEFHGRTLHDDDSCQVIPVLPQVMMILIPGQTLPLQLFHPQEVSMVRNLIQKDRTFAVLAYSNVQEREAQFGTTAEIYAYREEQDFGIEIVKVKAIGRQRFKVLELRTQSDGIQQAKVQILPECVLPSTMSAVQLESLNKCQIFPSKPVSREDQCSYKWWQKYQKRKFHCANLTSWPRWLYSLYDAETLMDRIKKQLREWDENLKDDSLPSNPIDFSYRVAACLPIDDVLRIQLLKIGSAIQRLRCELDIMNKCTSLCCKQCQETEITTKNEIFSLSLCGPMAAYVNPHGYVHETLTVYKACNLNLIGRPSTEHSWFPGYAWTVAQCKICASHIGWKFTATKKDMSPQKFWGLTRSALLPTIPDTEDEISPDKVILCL", "sequence (Q16531 whole entry partner)": "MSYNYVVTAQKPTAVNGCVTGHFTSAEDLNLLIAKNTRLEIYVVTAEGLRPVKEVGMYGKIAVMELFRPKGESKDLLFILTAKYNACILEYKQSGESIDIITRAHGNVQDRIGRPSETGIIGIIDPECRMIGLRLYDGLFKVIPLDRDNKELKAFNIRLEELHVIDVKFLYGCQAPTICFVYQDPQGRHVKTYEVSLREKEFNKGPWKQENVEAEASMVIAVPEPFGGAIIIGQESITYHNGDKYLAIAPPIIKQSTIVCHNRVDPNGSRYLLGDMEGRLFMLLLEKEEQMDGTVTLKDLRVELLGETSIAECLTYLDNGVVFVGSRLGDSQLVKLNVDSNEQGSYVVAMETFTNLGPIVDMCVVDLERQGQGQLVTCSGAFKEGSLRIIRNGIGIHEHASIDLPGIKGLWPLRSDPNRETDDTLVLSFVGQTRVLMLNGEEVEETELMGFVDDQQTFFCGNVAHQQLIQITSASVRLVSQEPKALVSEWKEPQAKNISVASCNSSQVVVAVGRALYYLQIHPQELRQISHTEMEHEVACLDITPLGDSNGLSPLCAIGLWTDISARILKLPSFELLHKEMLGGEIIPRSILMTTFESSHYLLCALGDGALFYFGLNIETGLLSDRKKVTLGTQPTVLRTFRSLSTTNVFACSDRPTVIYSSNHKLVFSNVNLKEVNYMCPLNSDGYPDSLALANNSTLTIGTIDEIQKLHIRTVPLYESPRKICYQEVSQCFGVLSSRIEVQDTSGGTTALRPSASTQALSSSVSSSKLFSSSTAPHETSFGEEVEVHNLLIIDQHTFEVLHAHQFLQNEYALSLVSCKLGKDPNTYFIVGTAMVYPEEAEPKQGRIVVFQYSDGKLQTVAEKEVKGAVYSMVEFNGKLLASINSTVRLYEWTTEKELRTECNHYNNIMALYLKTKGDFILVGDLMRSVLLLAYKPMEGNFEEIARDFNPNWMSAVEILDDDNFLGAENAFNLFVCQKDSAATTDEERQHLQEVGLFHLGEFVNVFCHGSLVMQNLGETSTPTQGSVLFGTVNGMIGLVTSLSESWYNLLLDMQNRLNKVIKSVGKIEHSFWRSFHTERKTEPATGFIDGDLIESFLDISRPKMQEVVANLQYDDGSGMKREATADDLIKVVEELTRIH", "assay": "Time-Resolved Fluorescence Resonance Energy Transfer (TR-FRET) assay", "assay_type": "binding", "conditions": "competition with Cy5-labeled thalidomide (8 nM), 1 hour at room temperature; read-out: CRBN HTRF IC50", "experimental": "(§1) The mixture were incubated at room temperature for 1 hour. […] Quantitative loss of FRET efficiency as a function of compound concentrations was fitted by a four-parameter Logistic Function using GraphPad Prism 7.0 and the IC50 values were reported for each compound.\n(§2) The compound numbers correspond to the compound numbers in Table 1.", "units": {"IC50": "µM"}, "values": [
      {"smiles": "Cn1cccc(N2CCC(=O)NC2=O)c1=O", "note": "[Compound I-143]", "IC50": "> 100"},
      {"smiles": "Cn1c(=O)c(N2CCC(=O)NC2=O)cc2ccccc21", "note": "[Compound I-144, 1-(1-Methyl-2-oxo-1,2-dihydroquinolin-3-yl)dihydropyrimidine-2,4(1H,3H)-dione]", "IC50": "> 100"},
      {"smiles": "CN1Cc2ccccc2C(N2CCC(=O)NC2=O)C1=O", "note": "(stereo not shown) [Compound I-145, 1-(2-Methyl-3-oxo-1,2,3,4-tetrahydroisoquinolin-4-yl)dihydropyrimidine-2,4(1H,3H)-dione]", "IC50": "> 100"},
      {"smiles": "Cn1cc2ccccc2c(N2CCC(=O)NC2=O)c1=O", "note": "[Compound I-146, 1-(2-Methyl-3-oxo-2,3-dihydroisoquinolin-4-yl)dihydropyrimidine-2,4(1H,3H)-dione]", "IC50": "> 100"}
    ]},
    {"target": "His-tagged CRBN-DDB1 complex (Homo sapiens (Human), UniProt Q96SW2)", "assay": "Time-Resolved Fluorescence Resonance Energy Transfer (TR-FRET) assay", "assay_type": "binding", "conditions": "read-out: CRBN HTRF IC50", "experimental": "as §1, §2", "units": {"IC50": "µM"}, "values": [
      {"smiles": "CN1CCN(c2ccc(OC3CCC(=O)NC3=O)cc2)CC1", "note": "(stereo not shown) [Compound I-128]", "IC50": "10 to 100"},
      {"smiles": "O=C1CCC(Oc2cccc3cccnc23)C(=O)N1", "note": "(stereo not shown) [Compound I-129]", "IC50": "10 to 100"},
      {"smiles": "NC(=O)c1ccnc(SC2CCC(=O)NC2=O)c1", "note": "(stereo not shown) [Compound I-130, 2-((2,6-Dioxopiperidin-3-yl)thio)isonicotinamide]", "IC50": "1 to 10"},
      {"smiles": "CNC(=O)c1ccnc(SC2CCC(=O)NC2=O)c1", "note": "(stereo not shown) [Compound I-131, 2-((2,6-Dioxopiperidin-3-yl)thio)-N-methylisonicotinamide]", "IC50": "10 to 100"},
      {"smiles": "CN(C)C(=O)c1ccnc(SC2CCC(=O)NC2=O)c1", "note": "(stereo not shown) [Compound I-132, 2-((2,6-Dioxopiperidin-3-yl)thio)-N,N-dimethylisonicotinamide]", "IC50": "10 to 100"},
      {"smiles": "O=C1CCC(Sc2ccc(C(=O)O)cn2)C(=O)N1", "note": "(stereo not shown) [Compound I-133, 6-((2,6-Dioxopiperidin-3-yl)thio)nicotinic Acid]", "IC50": "10 to 100"},
      {"smiles": "N#Cc1cccc(SC2CCC(=O)NC2=O)c1", "note": "(stereo not shown) [Compound I-134]", "IC50": "10 to 100"},
      {"smiles": "CCN(CC)c1ccc(SC2CCC(=O)NC2=O)cc1", "note": "(stereo not shown) [Compound I-135]", "IC50": "1 to 10"},
      {"smiles": "O=C1CCC(Sc2cccc(C(=O)O)n2)C(=O)N1", "note": "(stereo not shown) [Compound I-136]", "IC50": "1 to 10"},
      {"smiles": "Cc1c(SC2CCC(=O)NC2=O)cccc1C(=O)O", "note": "(stereo not shown) [Compound I-137, 3-((2,6-Dioxopiperidin-3-yl)thio)-2-methylbenzoic acid]", "IC50": "10 to 100"},
      {"smiles": "Cc1coc(-c2ccnc(SC3CCC(=O)NC3=O)c2)n1", "note": "(stereo not shown) [Compound I-138, 3-((4-(4-Methyloxazol-2-yl)pyridin-2-yl)thio)piperidine-2,6-dione]", "IC50": "1 to 10"},
      {"smiles": "O=C1CCC(Sc2cc(-c3nn[nH]n3)ccn2)C(=O)N1", "note": "(stereo not shown) [Compound I-139, 3-((4-(2H-Tetrazol-5-yl)pyridin-2-yl)thio)piperidine-2,6-dione]", "IC50": "1 to 10"},
      {"smiles": "NC(=O)c1cccnc1SC1CCC(=O)NC1=O", "note": "(stereo not shown) [Compound I-140, 2-((2,6-Dioxopiperidin-3-yl)thio)nicotinamide]", "IC50": "1 to 10"},
      {"smiles": "CN(C)C(=O)c1cccnc1SC1CCC(=O)NC1=O", "note": "(stereo not shown) [Compound I-141]", "IC50": "10 to 100"},
      {"smiles": "COCCOCCNC(=O)c1cccnc1SC1CCC(=O)NC1=O", "note": "(stereo not shown) [Compound I-142]", "IC50": "1 to 10"}
    ]}
  ]
}
